The target in series [1] is D-carbamoylase from Arthrobacter crystallopoietes DSM 20117 (Crystallibacter crystallopoietes, UniProt A0A1H1C375). Briefly: Substrate specificity of the purified D-carbamoylase (relative conversion of carbamoyl substrates). Type of series: biochemical. To be noted: for Rel. act. / conversion of substrate (in words): 30° C.; for Rel. act.: 0.1 M potassium phosphate buffer pH 8.0, 20 mM isomer mixture or 10 mM pure isomer, D,L-Carbamoyl-phenylalanine set at 100% (2 U/mg); for conversion of substrate (in words): assay conditions of substrate spectrum, pH 8.0. Here is the method:
(§1) The homogeneously purified D-carbamoylase with the His-tag and ttg start codon (pMW1 —FIG. 5) was used for characterization of the enzyme obtained in this way. The enzyme was present in 0.1 M KPB pH 8.0.
To determine the substrate spectrum, the enzyme was incubated at a reaction temperature of 30° C. with the particular substrate in the presence of 0.1 M potassium phosphate buffer pH 8.0. To ensure the same concentration of the D-isomer, if the substrate was present as an isomer mixture a concentration of 20 mM was established; if the substrate was present as a pure isomer a concentration of 10 mM was established.

Series [2] concerns purified D-carbamoylase. Briefly: Cofactor dependence: inactivation by complexing agents and sulfhydryl reagents, reactivation by metal ions. Type of series: biochemical, Arthrobacter crystallopoietes DSM 20117. The conditions noted are these: for inactivation of the enzyme by complexing agent: 10 mM, incubation at 25° C., 8-HQSA: within less than two hours. Here is the method: as §1
In order to be able to differentiate the inactivation by the complexing agent from the thermal inactivation, an aliquot of the enzyme solution was co-incubated without 8-HQSA and the activity was monitored with respect to time. It was concluded that to reactivate the enzyme, the 8-HQSA had to be removed from the enzyme by gel filtration, and incubation had to be carried out in the presence of 2 mM metal ions. However, neither Cu^2+, Co^2+, Mn^2+, Mg^2+, Fe^2+ nor Zn^2+ led to a reactivation of the enzyme.

Substrate in series [3]: NC(=O)N[C@H](Cc1c[nH]c2ccccc12)C(=O)O
As to the kind of experiment: Determination of kinetic parameters (Km, vmax) of the D-carbamoylase. Type of series: biochemical, Arthrobacter crystallopoietes DSM 20117. To be noted: other: Michaelis-Menten kinetics, Enzymfit program; pH 8.0. How it is done: as §1
For determination of Vmax and Km, the rate of reaction v was plotted as a function of the substrate concentration. The calculation of the kinetic parameters was carried out via the Enzymfit program (developed at the Institute of Bioprocess Technology, University of Stuttgart). […] The reaction can be described here by Michaelis-Menten kinetics (see equation 1). [formula]

A short description of series [4]: Determination of the optimum pH of the purified D-carbamoylase. Type of series: biochemical. The conditions noted are these: pH range 6.5 to 9.0, DL-C-phenylalanine, 30° C., 100 mM buffers. Here is the method: To determine the optimum pH of the purified D-carbamoylase, conversions were carried out at various pH values in a range from 6.5 to 9.0 with DL-C-phenylalanine as the substrate at 30° C. In order to be able to rule out concentration effects, the buffer concentration of all the buffers used (Tris, potassium phosphate and Tris-glycine) was adjusted to a value of 100 mM. The activity maximum of the D-carbamoylase was at pH 8.

Like-named read-outs stand apart in the source and are kept apart here.

As to `NC(=O)NC(CO)C(=O)O` (racemic) [D,L-Carbamoyl-serine], the Rel. act. in series [1] amounted to 35%.
Consider `NC(=O)N[C@@H](Cc1c[nH]c2ccccc12)C(=O)O` [L-carbamoyl-tryptophan], for which the “conversion of substrate (in words)” value in series [1] is on record as “not converted”.
For the molecule `O=S(=O)(O)c1ccc(O)c2ncccc12` [8-hydroxyquinolinesulfonic acid], in series [2], the “inactivation of the enzyme by complexing agent” value is “compete inhibition”.
On the same count and under the same terms, the entry for `O=C(O)CN(CCN(CC(=O)O)CC(=O)O)CC(=O)O` [EDTA] is “no inactivation”.
Consider `CC(C)[C@H](NC(N)=O)C(=O)O` [L-carbamoyl-valine], for which the “conversion of substrate (in words)” value in series [1] is recorded as “not converted”.
As for `O=C(O)CI` [iodine acetate], in series [2], the “inactivation of the D-carbamoylase by sulfhydryl reagents” value (“inactivation of the D-carbamoylase” below) is on record as “complete inactivation”.
Regarding `CC(C)C(NC(N)=O)C(=O)O` (racemic) [D,L-Carbamoyl-valine], the Rel. act. in series [1] worked out at 31%.
Turning to `CC(C)(C)C(NC(N)=O)C(=O)O` (racemic) [D,L-Carbamoyl-tert-leucine], the Rel. act. in series [1] was 18%.
With β-Ureido-propionate, in series [1], the Rel. act. was determined as 0% and the “conversion of substrate (in words)” value is recorded as “not converted”.
`CSCCC(NC(N)=O)C(=O)O` (racemic) [D,L-Carbamoyl-methionine]: the Rel. act. in series [1] came out at 13%.
`O=C(O)c1cc[c]([Hg][Cl])cc1` [para-chloro-mercury benzoate]: in series [2] (1 mM), the “inactivation of the D-carbamoylase” value is reported as “complete inactivation”.
`O=C(O)c1ccccc1[N+](=O)[O-]` [2-nitrobenzoate]: in series [2] (1 mM), the “inactivation of the D-carbamoylase” value is “complete inactivation”.
Consider `NC(=O)N[C@H](Cc1c[nH]c2ccccc12)C(=O)O` [D-Carbamoyl-tryptophan], for which the Rel. act. in series [1] was 80%.
Regarding `C[C@@H](NC(N)=O)C(=O)O` [D-Carbamoyl-alanine], the Rel. act. in series [1] came out at 510%. In addition, the “conversion relative to all other substrates” value in series [1] (compared with all other substrates of table 5) was “at least five times better”.

B1: D-carbamoylase from Arthrobacter crystallopoietes DSM 20117 (Crystallibacter crystallopoietes) (protein)
chain: MAKNLMLAVAQVGGIDSSESRPEVVARLIALLEEAASQGAELVVFPELTLTTFFPRTWFEEGDFEEYFDKSMPNDDVAPLFERAKDLGVGFYLGYAELTSDEKRYNTSILVNKHGDIVGKYRKMHLPGHADNREGLPNQHLEKKYFREGDLGFGVFDFHGVQVGMCLCNDRRWPEVYRSLALQGAELVVLGYNTPDFVPGWQEEPHAKMFTHLLSLQAGAYQNSVFVAAAGKSGFEDGHHMIGGSAVAAPSGEILAKAAGEGDEVVVVKADIDMGKPYKESVFDFAAHRRPDAYGIIAERKGRGAPLPVPFNVND
Turning to B1, in series [3], the Km is 7.5 mM and the Vmax was found to be 2.4 U/mg.

B2: D-carbamoylase: homogeneously purified recombinant D-carbamoylase from Arthrobacter crystallopoietes DSM 20117 (SEQ ID NO: 2) (protein)
chain: B1 chain
modifications: OTHER INFORMATION: … DNA
In the case of B2, the “activity maximum (optimum pH)” value in series [4] is reported as 8.

By Km is commonly meant the concentration of substrate that gives half-maximal velocity.

The values are drawn from patent US6800464B2, “Arthrobacter D-carbamoylase and methods of preparing enantiomerically enriched D-amino acids” (Degussa AG, priority 2001, dated 2004).
